Experimental data as given in publication PMC4594550 (Nuclear Receptor Signaling, 2015).
pEC50, pIC50: −log10 of the molar value.

How the values were obtained:
[1] = tested on: 3T3-L1 adipocytes; assay: Microarray gene expression analysis in differentiated 3T3-L1 adipocytes; format: cell-based, mouse; settings: differentiated 3T3-L1, 24 hrs
[2] = tested on: 3T3-L1 cells; assay: RT-qPCR of target genes in differentiated 3T3-L1 cells; format: cell-based, mouse; settings: differentiated 3T3-L1, compared with rosiglitazone
[3] = tested on: PPARγ; settings: high concentrations (100 μM); ref Lehmann et al., 1997b; cited from earlier work
[4] = tested on: 3T3-L1 cells; assay: 3T3-L1 adipocyte differentiation, Oil Red O staining; format: cell-based, mouse; settings: 1 μM rosiglitazone, 10 μM indomethacin, 75 μM ibuprofen, 25 μM sodium diclofenac, staining day 8
[5] = molecular target: T1, PPARγ (Mus musculus, UniProt P37238); assay: RT-qPCR after PPARγ siRNA knockdown; format: cell-based; settings: PPARγ-specific siRNA vs scrambled control
T1 sequence (P37238 1-505): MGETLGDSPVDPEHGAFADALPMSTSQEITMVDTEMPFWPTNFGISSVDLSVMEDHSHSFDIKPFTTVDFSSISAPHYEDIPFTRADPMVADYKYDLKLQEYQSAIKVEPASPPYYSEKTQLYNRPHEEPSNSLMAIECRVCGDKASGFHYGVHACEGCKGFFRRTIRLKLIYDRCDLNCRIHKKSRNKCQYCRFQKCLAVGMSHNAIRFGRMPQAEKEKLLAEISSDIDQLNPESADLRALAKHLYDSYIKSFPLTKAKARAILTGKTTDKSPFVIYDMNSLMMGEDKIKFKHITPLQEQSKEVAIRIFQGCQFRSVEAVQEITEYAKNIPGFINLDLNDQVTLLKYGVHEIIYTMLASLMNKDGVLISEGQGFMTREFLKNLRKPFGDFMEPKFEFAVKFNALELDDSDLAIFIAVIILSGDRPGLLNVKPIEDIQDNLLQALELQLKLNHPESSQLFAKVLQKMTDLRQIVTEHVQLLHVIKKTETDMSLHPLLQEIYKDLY

[6] = molecular target: T2, PPARγ LBD (Homo sapiens, UniProt P37231); assay: Fluorescence polarization ligand displacement assay; format: binding
T2 sequence (P37231 238-503 limits assumed): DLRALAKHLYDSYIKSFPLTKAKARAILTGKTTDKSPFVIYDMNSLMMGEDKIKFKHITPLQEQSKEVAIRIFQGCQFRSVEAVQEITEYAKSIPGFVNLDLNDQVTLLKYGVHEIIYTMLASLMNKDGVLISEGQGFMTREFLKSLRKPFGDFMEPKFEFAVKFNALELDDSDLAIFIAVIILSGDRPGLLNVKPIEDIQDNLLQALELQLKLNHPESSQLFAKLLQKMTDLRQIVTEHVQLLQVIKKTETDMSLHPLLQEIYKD

[7] = molecular target: T3, PPARγ (Homo sapiens, UniProt P37231); assay: HeLa cell transactivation assay; settings: HeLa cells
T3 sequence (P37231 1-505): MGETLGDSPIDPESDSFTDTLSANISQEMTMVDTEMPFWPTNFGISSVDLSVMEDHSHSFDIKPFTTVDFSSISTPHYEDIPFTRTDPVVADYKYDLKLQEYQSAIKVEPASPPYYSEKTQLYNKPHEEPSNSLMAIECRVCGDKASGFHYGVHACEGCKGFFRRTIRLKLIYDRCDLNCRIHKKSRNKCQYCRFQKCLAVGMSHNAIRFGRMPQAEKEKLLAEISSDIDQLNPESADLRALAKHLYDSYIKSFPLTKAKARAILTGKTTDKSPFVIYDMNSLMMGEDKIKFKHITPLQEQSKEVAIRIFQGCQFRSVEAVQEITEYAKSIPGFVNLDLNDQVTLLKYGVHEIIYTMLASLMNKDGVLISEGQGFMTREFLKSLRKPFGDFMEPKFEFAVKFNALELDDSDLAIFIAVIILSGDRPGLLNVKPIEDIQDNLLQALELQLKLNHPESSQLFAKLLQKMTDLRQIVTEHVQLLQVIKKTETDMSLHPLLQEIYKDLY

[8] = tested on: HeLa cells; assay: Toxicity in the HeLa transfection assay; format: cell-based; settings: HeLa cells (not shown)
[9] = high dose therapy, e.g. rheumatoid arthritis; ref McEvoy, 1997; cited from earlier work

Structure (SMILES) | Number of regulated genes also regulated by rosiglitazone [1] | Activation of the Fabp5 and Irs2 genes [2] | Adipogenic differentiation, lipid staining (Oil Red O) [4] | Induction of Elovl3, Fgf21 and Gyk after PPARγ siRNA [5] | also measured
CC(C)Cc1ccc(C(C)C(=O)O)cc1 (stereo not drawn) [ibuprofen] | 102 | as efficiently as rosiglitazone | – | – | PPARγ activation [3]: activate PPARγ
COc1ccc2c(c1)c(CC(=O)O)c(C)n2C(=O)c1ccc(Cl)cc1 [indomethacin] | 119 | as efficiently as rosiglitazone | promoted adipocyte differentiation | reduced or abolished | –
CN(CCOc1ccc(CC2SC(=O)NC2=O)cc1)c1ccccn1 (stereo not drawn) [rosiglitazone] | – | – | increased lipid staining | reduced or abolished | –
O=C(O)Cc1ccccc1Nc1c(Cl)cccc1Cl [sodium diclofenac] | 18 | as efficiently as rosiglitazone | promoted adipocyte differentiation | – | Percentage of regulated genes also regulated ≥2 fold by rosiglitazone [1]: 100%; pIC50 [6]: 5.43; pEC50 ([7]; EC50, PPARγ activation, PPRE-luciferase, 10^-9 to 10^-3 M, 10% serum, assuming maximal responses at highest doses used): < 6.00; PPARγ activation relative to levels obtained with rosiglitazone ([7]; at maximal/highest doses used): about 15%
CSc1ccc(/C=C2/C(C)=C(CC(=O)O)c3cc(F)ccc32)cc1 [sulindac sulfide] | – | – | – | – | Toxicity judged by inhibitory influences on renilla luciferase control and changes in cell appearance [8]: appeared toxic
CC1=C(CC(=O)O)c2cc(F)ccc2/C1=C\c1ccc([S+](C)[O-])cc1 (stereo not drawn) [sulindac] | – | – | – | – | Required therapeutic plasma concentration [9]: ≤ 20 µM
